Source: PubChem BioAssay (NCI)
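Where inhibition never reached the appropriate level, the endpoint shown equals the highest concentration tested. Otherwise, values were interpolated linearly from a five-concentration, 48-hour dose response in 96-well plates. Abbreviation: GI50, concentration required for 50% inhibition of growth. At the TGI there is no net growth.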

Assays:
Test in all cases: DTP human tumour cell line panel, 48 h
SK-MEL-2 melanoma = system: SK-MEL-2 melanoma
HCC-2998 colon = system: HCC-2998 colon
A549 NSCLC = system: A549 NSCLC
NCI/ADR-RES ovarian = system: NCI/ADR-RES ovarian
SK-OV-3 ovarian = system: SK-OV-3 ovarian
NCI-H522 lung = system: NCI-H522 lung
BT-549 breast = system: BT-549 breast
RPMI-8226 leukemia = system: RPMI-8226 leukemia
M14 melanoma = system: M14 melanoma
COLO 205 colon = system: COLO 205 colon
UACC-62 melanoma = system: UACC-62 melanoma
K-562 leukemia = system: K-562 leukemia
EKVX NSCLC = system: EKVX NSCLC
SR leukemia = system: SR leukemia
SNB-19 CNS = system: SNB-19 CNS
HS 578T breast = system: HS 578T breast
SK-MEL-5 melanoma = system: SK-MEL-5 melanoma
SF-268 CNS = system: SF-268 CNS
HCT-15 colon = system: HCT-15 colon
OVCAR-4 ovarian = system: OVCAR-4 ovarian
MDA-MB-435 = system: MDA-MB-435
KM12 colon = system: KM12 colon
OVCAR-3 ovarian = system: OVCAR-3 ovarian
SF-539 CNS = system: SF-539 CNS
A498 renal = system: A498 renal
DU-145 prostate = system: DU-145 prostate
SF-295 CNS = system: SF-295 CNS
SW-620 colon = system: SW-620 colon
MOLT-4 leukemia = system: MOLT-4 leukemia
UO-31 renal = system: UO-31 renal
MALME-3M melanoma = system: MALME-3M melanoma
HOP-92 NSCLC = system: HOP-92 NSCLC
LOX IMVI melanoma = system: LOX IMVI melanoma
NCI-H23 lung = system: NCI-H23 lung
RXF 393 renal = system: RXF 393 renal
CAKI-1 renal = system: CAKI-1 renal
HOP-62 NSCLC = system: HOP-62 NSCLC
SK-MEL-28 melanoma = system: SK-MEL-28 melanoma
CCRF-CEM leukemia = system: CCRF-CEM leukemia
786-0 renal = system: 786-0 renal
HCT-116 colon = system: HCT-116 colon
ACHN renal = system: ACHN renal
SNB-75 CNS = system: SNB-75 CNS
TK-10 renal = system: TK-10 renal
OVCAR-5 ovarian = system: OVCAR-5 ovarian
UACC-257 melanoma = system: UACC-257 melanoma
MDA-MB-231 breast = system: MDA-MB-231 breast
PC-3 prostate = system: PC-3 prostate
U251 CNS = system: U251 CNS

**Q.** What does the source list for `Cc1ccc2ccc3ccc(C)nc3c2n1.Cc1ccc2ccc3ccc(C)nc3c2n1.Oc1c(Cl)cc(Cl)c2ccc(CN3CCCCC3)nc12.[Ru]`?
**A.** GI50 (SK-MEL-2 melanoma): 613 nM; TGI (SK-MEL-2 melanoma): 1840 nM; GI50 (HCC-2998 colon): 414 nM; TGI (HCC-2998 colon): 1580 nM; GI50 (A549 NSCLC): 326 nM; TGI (A549 NSCLC): 1280 nM; GI50 (NCI/ADR-RES ovarian): 2700 nM; TGI (NCI/ADR-RES ovarian): 7990 nM; GI50 (SK-OV-3 ovarian): 293 nM; TGI (SK-OV-3 ovarian): 1070 nM; GI50 (NCI-H522 lung): 363 nM; TGI (NCI-H522 lung): 2130 nM; GI50 (BT-549 breast): 337 nM; TGI (BT-549 breast): 931 nM; GI50 (RPMI-8226 leukemia): 223 nM; TGI (RPMI-8226 leukemia): 876 nM; GI50 (M14 melanoma): 383 nM; TGI (M14 melanoma): 1440 nM; GI50 (COLO 205 colon): 195 nM; TGI (COLO 205 colon): 429 nM; GI50 (UACC-62 melanoma): 445 nM; TGI (UACC-62 melanoma): 1670 nM; GI50 (K-562 leukemia): 253 nM; TGI (K-562 leukemia): 1890 nM; GI50 (EKVX NSCLC): 363 nM; TGI (EKVX NSCLC): 2210 nM; GI50 (SR leukemia): 345 nM; TGI (SR leukemia): 1750 nM; GI50 (SNB-19 CNS): 331 nM; TGI (SNB-19 CNS): 1280 nM; GI50 (HS 578T breast): 354 nM; TGI (HS 578T breast): 2320 nM; GI50 (SK-MEL-5 melanoma): 675 nM; TGI (SK-MEL-5 melanoma): 1860 nM; GI50 (SF-268 CNS): 447 nM; TGI (SF-268 CNS): 2210 nM; GI50 (HCT-15 colon): 1280 nM; TGI (HCT-15 colon): 2770 nM; GI50 (OVCAR-4 ovarian): 362 nM; TGI (OVCAR-4 ovarian): 1840 nM; GI50 (MDA-MB-435): 333 nM; TGI (MDA-MB-435): 1230 nM; GI50 (KM12 colon): 411 nM; TGI (KM12 colon): 1520 nM; GI50 (OVCAR-3 ovarian): 387 nM; TGI (OVCAR-3 ovarian): 1380 nM; GI50 (SF-539 CNS): 366 nM; TGI (SF-539 CNS): 1290 nM; GI50 (A498 renal): 1760 nM; TGI (A498 renal): 4020 nM; GI50 (DU-145 prostate): 494 nM; TGI (DU-145 prostate): 4910 nM; GI50 (SF-295 CNS): 286 nM; TGI (SF-295 CNS): 1160 nM; GI50 (SW-620 colon): 381 nM; TGI (SW-620 colon): 1610 nM; GI50 (MOLT-4 leukemia): 461 nM; TGI (MOLT-4 leukemia): 2220 nM; GI50 (UO-31 renal): 1720 nM; TGI (UO-31 renal): 3880 nM; GI50 (MALME-3M melanoma): 248 nM; TGI (MALME-3M melanoma): 666 nM; GI50 (HOP-92 NSCLC): 109 nM; TGI (HOP-92 NSCLC): 835 nM; GI50 (LOX IMVI melanoma): 341 nM; TGI (LOX IMVI melanoma): 1230 nM; GI50 (NCI-H23 lung): 300 nM; TGI (NCI-H23 lung): 1130 nM; GI50 (RXF 393 renal): 714 nM; TGI (RXF 393 renal): 1990 nM; GI50 (CAKI-1 renal): 1430 nM; TGI (CAKI-1 renal): 2830 nM; GI50 (HOP-62 NSCLC): 409 nM; TGI (HOP-62 NSCLC): 1410 nM; GI50 (SK-MEL-28 melanoma): 513 nM; TGI (SK-MEL-28 melanoma): 1780 nM; GI50 (CCRF-CEM leukemia): 423 nM; TGI (CCRF-CEM leukemia): 2200 nM; GI50 (786-0 renal): 542 nM; TGI (786-0 renal): 1780 nM; GI50 (HCT-116 colon): 247 nM; TGI (HCT-116 colon): 1230 nM; GI50 (ACHN renal): 1650 nM; TGI (ACHN renal): 3230 nM; GI50 (SNB-75 CNS): 243 nM; TGI (SNB-75 CNS): 1120 nM; GI50 (TK-10 renal): 734 nM; TGI (TK-10 renal): 2070 nM; GI50 (OVCAR-5 ovarian): 599 nM; TGI (OVCAR-5 ovarian): 3010 nM; GI50 (UACC-257 melanoma): 350 nM; TGI (UACC-257 melanoma): 1230 nM; GI50 (MDA-MB-231 breast): 295 nM; TGI (MDA-MB-231 breast): 909 nM; GI50 (PC-3 prostate): 303 nM; TGI (PC-3 prostate): 1500 nM; GI50 (U251 CNS): 218 nM; TGI (U251 CNS): 1160 nM
